This note sets out measurements from patent publication EP0971739B1 (priority 1997, dated 1998).

The assay has as its system tetanus toxoid. On the set-up: species or system ICR mice. The conditions noted are these: mouse, in vivo.

In the case of `CCCCCCCCCCCCCCCC(=O)OC[C@H](COP(=O)([O-])OCC[N+](C)(C)C)OC(=O)CCCCCCCCCCCCCCC` [DPPC, 1,2-Dipalmitoyl-sn-glycero-3-phosphocholine], the “Anti-Tetanus Toxoid Titer^-1 Fecal Extract d7P2° IgA” value was below 50, the “Anti-Tetanus Toxoid Titer^-1 Fecal Extract d7P2° IgG” value is listed as below 50, the “Anti-Tetanus Toxoid Titers^-1 IgG1” value is given as 25,600 and the “Anti-Tetanus Toxoid Titers^-1 IgG2a” value was 1,600. The “Anti-Tetanus Toxoid Titers^-1 IgG2b” value is listed as 3,200, the “Serum Anti-Tetanus Toxoid Titer^-1 IgA-Specific d10P2°” value stood at 100, the “Serum Anti-Tetanus Toxoid Titer^-1 IgA-Specific d10P3°” value was 200 and the “Serum Anti-Tetanus Toxoid Titer^-1 IgG-Specific d10P2°” value was 6,400. Also, the “Serum Anti-Tetanus Toxoid Titer^-1 IgG-Specific d10P3°” value is listed as 6,400.
